From the supplement of paper PMC11208160

Experiment: recombinant barcode read abundance after kanamycin selection (control-corrected) (log10(CPM+1)); higher = more efficient recombination; sequences stand for … in AGTGCAGAGAAAATCGGCCAGTTTTCTCTGCCTGCAGTCCGCATGCCGT…AGATTTATGCAGCGGACTGCCTTTCTCCCAAAGTGATAAACCGGACAGTATCATGGACCGGTTTTCCCGGTAATCCGTATTTGCAAGGTTGGTTTCACT; site = the 11-nt target
How it was run: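 The screen was pooled in E. coli and paired targets with IS621 bridge RNA target-binding loops. Recombination efficiency is taken from barcode counts per million at recombinant junctions, averaged and adjusted against the control. Values, in the form log10(CPM+1), come from duplicate plating on chloramphenicol/ampicillin LB agar or on chloramphenicol/ampicillin/kanamycin with 0.1 mM IPTG.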
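Also: IS621 recombinase and bridge RNA in Escherichia coli cells.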

In order of falling “recombinant barcode read abundance (log10)” value:
1. TATCCGACTTGGGTTCTAACCTGTTGCCT (site TATCCGACTAG)  1.12
2. TATGACGCTTGGGTTCTAACCTGTTGCCT (site TATGACGCTAG)  1.12
3. TATCCGACTTGGGTTCTAACCTGTTGCCT (site TATCCGACTCG)  0.553
4. TATTATACTTGGGTTCTAACCTGTTGCCT (site TATTATACTAT)  0.467
5. TATCCGACTTGGGTTCTAACCTGTTGCCG (site TATCCGACTGG)  0.386
6. TATTCACCTTGGGTTCTAACCTGTTGCCT (site TATTCACCTAG)  0.358
7. TATGCGGCTTGGGTTCTAACCTGTTGCCT (site TATGCGGCTAG)  0.34
8. TATTCTCCTTGGGTTCTAACCTGTTGCTT (site TATTCTCCTAA)  0.266
9. TATGACGCTTGGGTTCTAACCTGTTGCCT (site TAAGACGCTAG)  0.261
10. TATTCTCCTTGGGTTCTAACCTGTTGCGT (site TATTCTCCTAC)  0.243
11. TATTCTCCTTGGGTTCTAACCTGTTGCCT (site TATTCTCCTAA)  0.212
12. TATGCGGCTTGGGTTCTAACCTGTTGCCT (site TATGGGGCTAG)  0.193
13. TATGACGCTTGGGTTCTAACCTGTTGCCT (site TACGACGCTAG)  0.124
14. TATTCTCCTTGGGTTCTAACCTGTTGCGT (site TATTCTCCTAG)  0.12
15. TATCCGACTTGGGTTCTAACCTGTTGCCG (site TATCCGACTTG)  0.11
16. TATGCGGCTTGGGTTCTAACCTGTTGCCT (site TATGTGGCTAG)  0.11
17. TATTCACCTTGGGTTCTAACCTGTTGCCT (site CATTCACCTAG)  0.0903
18. TATTCACCTTGGGTTCTAACCTGTTGCCT (site GATTCACCTAG)  0.0774
19. TATTCACCTTGGGTTCTAACCTGTTGCCT (site AATTCACCTAG)  0.0667
20. TATTCTCCTTGGGTTCTAACCTGTTGCCT (site TATTCTCCTAG)  0.0657
21. TATTAATCTTGGGTTCTAACCTGTTGCCT (site TATTAATCTAG)  0.0472
22. TATTCTCCTTGGGTTCTAACCTGTTGCGT (site TATTCTCCTAT)  0.0406
23. TATCCGACTTGGGTTCTAACCTGTTGCCT (site TATCCGACTTG)  0.0377
24. TATCCGACTTGGGTTCTAACCTGTTGCCT (site TATCCGACTGG)  0.0369
25. TATTATACTTGGGTTCTAACCTGTTGCCT (site TATTATACTAG)  0.035
26. TATTCTCCTTGGGTTCTAACCTGTTGCTT (site TATTCTCCTAT)  0.0253
27. TATTCTCCTTGGGTTCTAACCTGTTGCCT (site TATTCTCCTAC)  0.0221
28. TATTCTCCTTGGGTTCTAACCTGTTGCTT (site TATTCTCCTAG)  0.0207
29. TATTCTCCTTGGGTTCTAACCTGTTGCCT (site TATTCTCCTAT)  0.0206
30. TATTATACTTGGGTTCTAACCTGTTGCCT (site TATTATACTAC)  0.0157
31. TATTCTCCTTGGGTTCTAACCTGTTGCTT (site TATTCTCCTAC)  0.0156
32. TATTCTCCTTGGGTTCTAACCTGTTGCGT (site TATTCTCCTAA)  0.0153
33. TATTAATCTTGGGTTCTAACCTGTTGCCT (site CATTAGTCTAG)  0.0101
34. TATTATACTTGGGTTCTAACCTGTTGCCT (site TATTATACTAA)  0.00549
35. TATGACGCTTGGGTTCTAACCTGTTGCCT (site TAGGACGCTAG)  0.00539
36. TATGCGGCTTGGGTTCTAACCTGTTGCCT (site TATGAGGCTAG)  0
